The target in assay [1] is T1, human recombinant serotonin (5-Hydroxytryptamine) 5-HT6 receptor (Homo sapiens, UniProt P50406).
T1 construct: expressed in transfected cells; host or cells: human HeLa cells
Nature of the assay: Serotonin 5-HT6 radioligand binding ([3H]LSD). The conditions noted are these: compound at 1 μM; read-out: Serotonin (1 μM) 5-HT6, percent inhibition of specific binding. In a few lines: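 Human recombinant 5-HT6 receptor from HeLa cells incubated with 1.5 nM [3H]LSD for 120 min at 37° C in 50 mM Tris-HCl pH 7.4, 150 mM NaCl, 2 mM ascorbic acid, 0.001% BSA. Nonspecific binding defined with 5 μM serotonin; bound ligand counted after filtration.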

For assay [2], the target named is T2, human recombinant serotonin (5-Hydroxytryptamine) 5-HT2C receptor (Homo sapiens, UniProt P28335).
T2 construct: expressed in transfected cells; host or cells: CHO-K1 cells
T2 sequence (P28335 33-458): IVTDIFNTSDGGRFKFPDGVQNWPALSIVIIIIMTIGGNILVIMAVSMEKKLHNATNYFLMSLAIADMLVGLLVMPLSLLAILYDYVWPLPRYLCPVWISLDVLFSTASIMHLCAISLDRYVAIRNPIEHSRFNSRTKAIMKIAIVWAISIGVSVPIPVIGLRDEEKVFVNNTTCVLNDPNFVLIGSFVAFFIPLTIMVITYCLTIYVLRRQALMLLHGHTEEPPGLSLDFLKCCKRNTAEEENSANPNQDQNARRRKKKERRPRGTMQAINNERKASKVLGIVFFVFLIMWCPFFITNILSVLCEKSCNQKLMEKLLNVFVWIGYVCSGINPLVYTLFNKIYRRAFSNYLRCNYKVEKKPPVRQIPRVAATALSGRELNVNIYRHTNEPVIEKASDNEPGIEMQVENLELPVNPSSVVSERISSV
Nature of the assay: Serotonin 5-HT2C radioligand binding ([3H]Mesulergine). The note with it: compound at 1 μM; read-out: Serotonin (1 μM) 5-HT2C, percent inhibition of specific binding. An outline of the steps: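 Membranes from CHO-K1 cells expressing human 5-HT2C, incubated with 1 nM [3H]mesulergine for 60 min at 25 °C in 50 mM Tris-HCl pH 7.4 with ascorbic acid and pargyline.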

Assay [3] has as its target T3, human recombinant histamine H1 receptor (Homo sapiens, UniProt P35367).
T3 construct: expressed in transfected cells; host or cells: CHO cells
Nature of the assay: Histamine H1 radioligand binding ([3H]Pyrilamine). The conditions noted are these: compound at 1 μM; read-out: Histamine Binding (1 μM) H1, percent inhibition of specific binding. An outline of the steps:
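Membranes from CHO cells expressing the receptor were incubated with compound and 1.2 nM [3H]pyrilamine for 180 min at 25 °C in 50 mM Tris-HCl pH 7.4 with MgCl2, NaCl and sucrose; 1 μM pyrilamine defined non-specific binding. Filter-bound radioactivity was counted.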

Assay [4] deals with T4, human recombinant adrenergic α2B receptor (Homo sapiens, UniProt P18089).
T4 construct: expressed in transfected cells; host or cells: CHO-K1 cells
T4 sequence (P18089 1-450): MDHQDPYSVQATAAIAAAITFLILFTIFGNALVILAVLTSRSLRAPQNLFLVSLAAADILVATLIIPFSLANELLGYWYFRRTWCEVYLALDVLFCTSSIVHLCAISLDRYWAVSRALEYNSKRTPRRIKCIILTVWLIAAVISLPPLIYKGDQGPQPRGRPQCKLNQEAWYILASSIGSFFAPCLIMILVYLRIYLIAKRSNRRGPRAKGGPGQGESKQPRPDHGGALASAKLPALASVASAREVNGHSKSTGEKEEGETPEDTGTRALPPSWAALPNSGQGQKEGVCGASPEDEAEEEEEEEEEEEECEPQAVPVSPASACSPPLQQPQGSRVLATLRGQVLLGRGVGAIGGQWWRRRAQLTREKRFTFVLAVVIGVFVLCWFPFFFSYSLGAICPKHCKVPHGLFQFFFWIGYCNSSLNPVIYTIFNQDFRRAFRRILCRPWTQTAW
The experiment in a line: Adrenergic alpha2B radioligand binding ([3H]Rauwolscine). The conditions noted are these: compound at 1 μM; read-out: Adrenergic (1 μM) α2B, percent inhibition of specific binding. An outline of the steps:
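CHO-K1-expressed receptor in Tris-HCl pH 7.4 with MgCl2, EDTA, BSA, incubated 60 min at 25° C with 2.5 nM [3H]Rauwolscine; 10 μM prazosin defines non-specific binding.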

T1 sequence (P50406 whole entry): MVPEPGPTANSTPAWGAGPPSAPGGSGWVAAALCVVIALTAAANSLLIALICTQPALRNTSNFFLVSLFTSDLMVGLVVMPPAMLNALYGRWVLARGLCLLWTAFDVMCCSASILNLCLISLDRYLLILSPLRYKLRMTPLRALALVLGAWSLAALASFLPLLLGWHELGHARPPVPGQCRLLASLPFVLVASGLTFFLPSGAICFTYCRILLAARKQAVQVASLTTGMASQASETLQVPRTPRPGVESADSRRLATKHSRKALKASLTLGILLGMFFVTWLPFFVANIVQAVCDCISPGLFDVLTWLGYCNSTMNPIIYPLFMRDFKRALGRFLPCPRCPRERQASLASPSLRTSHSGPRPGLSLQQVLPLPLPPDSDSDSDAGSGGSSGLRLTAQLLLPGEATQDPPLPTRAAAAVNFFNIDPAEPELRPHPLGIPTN
T3 sequence (P35367 whole entry): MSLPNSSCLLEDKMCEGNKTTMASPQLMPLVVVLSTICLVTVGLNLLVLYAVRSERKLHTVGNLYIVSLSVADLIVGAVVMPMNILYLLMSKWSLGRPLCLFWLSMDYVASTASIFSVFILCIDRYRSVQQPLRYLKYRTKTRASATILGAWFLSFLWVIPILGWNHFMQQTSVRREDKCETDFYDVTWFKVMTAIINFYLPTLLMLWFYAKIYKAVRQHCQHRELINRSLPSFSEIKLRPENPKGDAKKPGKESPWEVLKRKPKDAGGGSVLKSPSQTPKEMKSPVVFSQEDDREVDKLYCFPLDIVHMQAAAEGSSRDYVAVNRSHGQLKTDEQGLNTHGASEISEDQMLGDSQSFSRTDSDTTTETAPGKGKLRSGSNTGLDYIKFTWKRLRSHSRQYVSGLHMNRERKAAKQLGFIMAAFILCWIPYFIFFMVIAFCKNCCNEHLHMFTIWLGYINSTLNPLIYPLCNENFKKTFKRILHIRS

For `Cc1ccc2c(c1)c1c(n2CCc2ccccc2Cl)CCN(C)CC1` [Compound No. 69, 6-(2-chlorophenethyl)-1,2,3,4,5,6-hexahydro-3,9-dimethylazepino[4,5-b]indole], the inhibition (in general, the relative decrease from the control value, in per cent) at 1 µM in assay [1] was -4%; in assay [2] it was -1%; in assay [3] it was 2%; in assay [4] it was -4%.
`Cc1ccc2c(c1)c1c(n2CCc2ccccn2)CCN(C)CC1` [Compound No. 9, 1,2,3,4,5,6-hexahydro-3,9-dimethyl-6-(2-(pyridin-2-yl)ethyl)azepino[4,5-b]indole]: the inhibition at 1 µM in assay [1] is 81%; in assay [2] it was 93%; in assay [3] it was 99%; in assay [4], 90%.
Turning to `Cc1ccc(C(O)Cn2c3c(c4cc(Cl)ccc42)CCN(C)CC3)cc1` (stereo not drawn) [Compound No. 26, 2-(9-chloro-2,3,4,5-tetrahydro-3-methylazepino[4,5-b]indol-6(1H)-yl)-1-p-tolylethanol], the inhibition at 1 µM was 87% in assay [1], 93% in assay [2], 97% in assay [3] and 104% in assay [4].
Turning to `CN1CCc2c(n(CC(C)(O)c3ccc(F)cc3)c3ccc(Cl)cc23)CC1` (stereo not drawn) [Compound No. 13, 1-(9-chloro-2,3,4,5-tetrahydro-3-methylazepino[4,5-b]indol-6(1H)-yl)-2-(4-fluorophenyl)propan-2-ol], the inhibition at 1 µM stood at 100% in assay [1], 89% in assay [2], 98% in assay [3] and 105% in assay [4].
Regarding `CN1CCc2c(n(CCc3ccncc3)c3ccc(Cl)cc23)CC1` [Compound No. 5, 9-chloro-1,2,3,4,5,6-hexahydro-3-methyl-6-(2-(pyridin-4-yl)ethyl)azepino[4,5-b]indole], the inhibition at 1 µM in assay [1] is 93%; in assay [2], 90%; in assay [3], 100%; in assay [4] it was 100%.
With `Cc1ccc2c(c1)c1c(n2CC(O)c2ccc(C)nc2)CCN(C)CC1` (stereo not drawn) [Compound No. 23, 2-(2,3,4,5-tetrahydro-3,9-dimethylazepino[4,5-b]indol-6(1H)-yl)-1-(6-methylpyridin-3-yl)ethanol], the inhibition at 1 µM turned out to be 17% in assay [1], 37% in assay [2], 58% in assay [3] and 25% in assay [4].
As to `CN1CCc2c(n(CC(=O)Nc3ccc(F)cc3)c3ccc(Cl)cc23)CC1` [Compound No. 37, 2-(9-chloro-2,3,4,5-tetrahydro-3-methylazepino[4,5-b]indol-6(1H)-yl)-N-(4-fluorophenyl) acetamide], the inhibition at 1 µM in assay [1] stood at 12%; in assay [2], 85%; in assay [3] it was 13%; in assay [4], 70%.
On the same counts, the results for `Cc1ccc2c(c1)c1c(n2CC(=O)OC2CCCC2)CCN(C)CC1` [Compound No. 55, Cyclopentyl-2-(2,3,4,5-tetrahydro-3,9-dimethylazepino[4,5-b]indol-6(1H)-yl)acetate] are 4%, 32%, 15% and 7%.
For the compound `CN1CCc2c(n(CC(O)c3ccc(F)cc3)c3ccc(Cl)cc23)CC1` (stereo not drawn) [Compound No. 51, 2-(9-chloro-2,3,4,5-tetrahydro-3-methylazepino[4,5-b]indol-6(1H)-yl)-1-(4-fluorophenyl) ethanol], the inhibition at 1 µM is 94% in assay [1], 98% in assay [2], 102% in assay [3] and 103% in assay [4].
For `Cc1ccc2c(c1)c1c(n2/C=C/c2ccccc2)CCN(C)CC1` [Compound No. 229, (E)-3,9-dimethyl-6-styryl-1,2,3,4,5,6-hexahydroazepino[4,5-b]indole], the inhibition at 1 µM in assay [1] stood at 102%; in assay [2], 98%; in assay [3], 100%; in assay [4], 103%.
On the same counts, the results for `CN1CCc2c(n(CC(O)c3ccc(Cl)cc3)c3ccc(Cl)cc23)CC1` (stereo not drawn) [Compound No. 16, 2-(9-chloro-2,3,4,5-tetrahydro-3-methylazepino[4,5-b]indol-6(1H)-yl)-1-(4-chlorophenyl)ethanol] are 78%, 92%, 103% and 99%.
In the case of `CN1CCc2c(n(/C=C/c3ccc(F)cc3)c3ccc(Cl)cc23)CC1` [Compound No. 234, (E)-9-chloro-6-(4-fluorostyryl)-3-methyl-1,2,3,4,5,6-hexahydroazepino[4,5-b]indole], the inhibition at 1 µM in assay [1] is 103%; in assay [2] it was 98%; in assay [3], 99%; in assay [4], 100%.
Taken in the same sequence, the figures for `Cc1ccc2c(c1)c1c(n2CC(O)c2ccc(Cl)cc2)CCN(C)CC1` (stereo not drawn) [Compound No. 17, 1-(4-chlorophenyl)-2-(2,3,4,5-tetrahydro-3,9-dimethylazepino[4,5-b]indol-6(1H)-yl)ethanol] were 80%, 93%, 101% and 99%.
On to `Cc1ccc2c(c1)c1c(n2/C=C/c2ccc(F)cc2)CCN(C)CC1` [Compound No. 39, 6-(4-fluorostyryl)-1,2,3,4,5,6-hexahydro-3,9-dimethylazepino[4,5-b]indole], for which the inhibition at 1 µM in assay [1] came to 103%; in assay [2], 97%; in assay [3], 98%; in assay [4], 105%.
Take `C/C(=C\n1c2c(c3cc(C)ccc31)CCN(C)CC2)c1ccc(Cl)cc1` [Compound No. 33, 6-((E)-2-(4-chlorophenyl)prop-1-enyl)-1,2,3,4,5,6-hexahydro-3,9-dimethylazepino[4,5-b]indole]: the inhibition at 1 µM amounted to 98% in assay [1], 86% in assay [2], 87% in assay [3] and 103% in assay [4].
On the same counts, the results for `Cc1ccc(CCn2c3c(c4cc(Cl)ccc42)CCN(C)CC3)cc1` [Compound No. 46, 9-chloro-3-methyl-6-(4-methylphenethyl)-1,2,3,4,5,6-hexahydroazepino[4,5-b]indole] are 98%, 98%, 108% and 107%.
Taken in the same sequence, the figures for `Cc1ccc2c(c1)c1c(n2CC(=O)N2CCCCC2)CCN(C)CC1` [Compound No. 32, 2-(2,3,4,5-tetrahydro-3,9-dimethylazepino[4,5-b]indol-6(1H)-yl)-1-(piperidin-1-yl)ethanone] were 4%, 48%, 11% and 22%.
Taken in the same sequence, the figures for `CN1CCc2c(n(CC(=O)N3CCCC3)c3ccc(Cl)cc23)CC1` [Compound No. 53, 2-(9-chloro-2,3,4,5-tetrahydro-3-methylazepino[4,5-b]indol-6(1H)-yl)-1-(pyrrolidin-1-yl)ethanone] were -1%, 32%, 14% and 3%.
